# Laboratory results taken from US9382197B2, “Substituted hydroxamic acids and uses thereof” (Millennium Pharmaceuticals, Inc., priority 2010, dated 2016).
# Biological target: T1, purified human HDAC6 (Homo sapiens, UniProt Q9UBN7)
# T1 construct: purchased BPS Bioscience 5006
# T1 sequence (Q9UBN7 1-1215): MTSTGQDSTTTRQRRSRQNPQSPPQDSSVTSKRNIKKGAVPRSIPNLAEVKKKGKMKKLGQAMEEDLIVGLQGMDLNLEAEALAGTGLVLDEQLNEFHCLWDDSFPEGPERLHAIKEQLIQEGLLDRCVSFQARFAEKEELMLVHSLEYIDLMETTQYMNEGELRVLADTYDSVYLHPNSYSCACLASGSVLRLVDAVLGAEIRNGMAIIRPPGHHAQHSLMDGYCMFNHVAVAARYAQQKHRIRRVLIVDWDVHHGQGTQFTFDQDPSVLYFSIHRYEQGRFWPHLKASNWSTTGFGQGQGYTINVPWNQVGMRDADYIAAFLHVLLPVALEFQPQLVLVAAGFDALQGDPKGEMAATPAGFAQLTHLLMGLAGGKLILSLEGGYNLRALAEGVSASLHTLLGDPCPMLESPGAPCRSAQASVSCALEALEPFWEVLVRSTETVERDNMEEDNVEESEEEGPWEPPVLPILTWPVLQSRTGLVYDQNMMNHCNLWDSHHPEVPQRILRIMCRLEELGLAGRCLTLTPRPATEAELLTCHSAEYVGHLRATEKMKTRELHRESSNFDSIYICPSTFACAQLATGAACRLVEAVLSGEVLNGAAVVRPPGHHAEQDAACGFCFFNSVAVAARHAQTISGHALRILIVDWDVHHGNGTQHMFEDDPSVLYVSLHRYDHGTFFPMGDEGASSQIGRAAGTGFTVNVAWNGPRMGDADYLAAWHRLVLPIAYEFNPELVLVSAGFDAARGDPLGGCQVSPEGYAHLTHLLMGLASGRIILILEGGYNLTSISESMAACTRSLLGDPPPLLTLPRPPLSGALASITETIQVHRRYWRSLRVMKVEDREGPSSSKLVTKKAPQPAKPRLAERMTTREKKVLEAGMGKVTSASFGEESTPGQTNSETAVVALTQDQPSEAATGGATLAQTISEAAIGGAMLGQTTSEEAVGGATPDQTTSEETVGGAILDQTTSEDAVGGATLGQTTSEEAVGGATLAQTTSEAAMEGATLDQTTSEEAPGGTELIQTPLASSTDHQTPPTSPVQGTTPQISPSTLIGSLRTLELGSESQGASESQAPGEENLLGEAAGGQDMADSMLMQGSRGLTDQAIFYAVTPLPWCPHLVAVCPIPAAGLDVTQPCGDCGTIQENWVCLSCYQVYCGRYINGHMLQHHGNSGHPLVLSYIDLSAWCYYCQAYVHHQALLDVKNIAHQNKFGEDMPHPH
# Assay: HDAC6 Enzyme Assay
# Format: biochemical
# Details: bin: greater than 500 nM and less than 1 μM (lower bound in nM, upper bound in μM)
# Outline: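 Deacetylated product quantified after trypsin digestion as released AMC (340/460 nm), following a 1 h, 30 °C reaction of human HDAC6 with Ac-RGK(Ac)-AMC peptide, quenched by trichostatin A. IC50 derived from DMSO-normalized curves.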
row,IC50 [nM],SMILES
1,500 to 1000,"CC(NC(=O)C1(c2ccc(Cl)cc2)CC1)c1cccc(C(=O)NO)c1 (centres unmarked) [Compound I-183, 3-[1-({[1-(4-chlorophenyl)cyclopropyl]carbonyl}amino)ethyl]-N-hydroxybenzamide]"
2,500 to 1000,"CC(NC(=O)NC(C)(C)C)c1ccc(C(=O)NO)cc1 (centres unmarked) [Compound I-339, 4-(1-{[(tert-butylamino)carbonyl]amino}ethyl)-N-hydroxybenzamide]"

# Same assay, conditions: bin: greater than 1 μM
row,IC50 [nM],SMILES
1,> 1000,"C[C@@H](NC(=O)C(C)(C)C)c1cccc(C(=O)NO)c1 [Compound I-177, 3-{(1R)-1-[(2,2-dimethylpropanoyl)amino]ethyl}-N-hydroxybenzamide]"
2,> 1000,"C[C@@H](NC(=O)NC(C)(C)C)c1cccc(C(=O)NO)c1 [Compound I-320, 3-((1R)-1-{[(tert-butylamino)carbonyl]amino}ethyl)-N-hydroxybenzamide]"

# Same assay, conditions: purified human HDAC6, substrate Ac-Arg-Gly-Lys(Ac)-AMC, 1 hour at 30° C.; reported as bins
row,SMILES,IC50 [nM]
1,"Cc1cc(C(=O)NC(C)c2cccc(C(=O)NO)c2)nn1C (centres unmarked) [Compound I-84, N-(1-{3-[(hydroxyamino)carbonyl]phenyl}ethyl)-1,5-dimethyl-1H-pyrazole-3-carboxamide]",100 to 500
2,"Cc1c(C(=O)N[C@H](C)c2cccc(C(=O)NO)c2)sc2ccccc12 [Compound I-113, N-((1R)-1-{3-[(hydroxyamino)carbonyl]phenyl}ethyl)-3-methyl-1-benzothiophene-2-carboxamide]",100 to 500
3,"CC(C)[C@@H](NC(=O)C1(C)CCCCC1)c1ccc(C(=O)NO)cc1 [Compound I-126, N-hydroxy-4-((1R)-2-methyl-1-{[(1-methylcyclohexyl)carbonyl]amino}propyl)benzamide]",100 to 500
4,"Cc1ccc2[nH]c(C(=O)NC(C)c3cccc(C(=O)NO)c3)c(C)c2c1 (centres unmarked) [Compound I-376, N-(1-{3-[(hydroxyamino)carbonyl]phenyl}ethyl)-3,5-dimethyl-1H-indole-2-carboxamide]",100 to 500
5,"CC(NC(=O)c1ccc2ncsc2c1)c1ccc(C(=O)NO)cc1 (centres unmarked) [Compound I-360, N-(1-{4-[(hydroxyamino)carbonyl]phenyl}ethyl)-1,3-benzothiazole-6-carboxamide]",< 100
6,"COc1ccc(S(=O)(=O)NC(C)c2ccc(C(=O)NO)cc2)cc1 (centres unmarked) [Compound I-47, N-hydroxy-4-(1-{[(4-methoxyphenyl)sulfonyl]amino}ethyl)benzamide]",100 to 500

# Further lines, results first:
row,IC50 [nM],SMILES
1,< 100,"Cc1cccc(C(=O)NC(C)c2ccc(C(=O)NO)cc2)c1 (centres unmarked) [Compound I-295, N-(1-{4-[(hydroxyamino)carbonyl]phenyl}ethyl)-3-methylbenzamide]"
2,< 100,"Cc1ccc2[nH]c(C(=O)NC(c3ccc(C(=O)NO)cc3)C(C)(C)C)cc2c1 (centres unmarked) [Compound I-129, N-(1-{4-[(hydroxyamino)carbonyl]phenyl}-2,2-dimethylpropyl)-5-methyl-1H-indole-2-carboxamide]"
3,< 100,"CC(C)C(NC(=O)c1nc2ccccc2s1)c1ccc(C(=O)NO)cc1 (centres unmarked) [Compound I-191, N-(1-{4-[(hydroxyamino)carbonyl]phenyl}-2-methylpropyl)-1,3-benzothiazole-2-carboxamide]"
4,< 100,"CC(NC(=O)C1(c2ccc(Cl)cc2)CCC1)c1ccc(C(=O)NO)cc1 (centres unmarked) [Compound I-110, 4-[1-({[1-(4-chlorophenyl)cyclobutyl]carbonyl}amino)ethyl]-N-hydroxybenzamide]"
5,< 100,"CC(C)[C@@H](NC(=O)NC12CC3CC(CC(C3)C1)C2)c1ccc(C(=O)NO)cc1 [Compound I-354, 4-[(1R)-1-({[1-adamantylamino]carbonyl}amino)-2-methylpropyl]-N-hydroxybenzamide]"
6,< 100,"Cc1cccc(NC(=O)NC(C)c2ccc(C(=O)NO)cc2)c1C (centres unmarked) [Compound I-175, 4-[1-({[(2,3-dimethylphenyl)amino]carbonyl}amino)ethyl]-N-hydroxybenzamide]"
7,< 100,"C[C@@H](NC(=O)C12CC3CC(CC(C3)C1)C2)c1ccc(C(=O)NO)cc1 [Compound I-209, N-((1R)-1-{4-[(hydroxyamino)carbonyl]phenyl}ethyl)adamantane-1-carboxamide]"
